Test results as given in patent US4425347A, “Perfluorobicyclo compound emulsion preparation” (priority 1982, dated 1984).

Assay: Distribution of Perfluoro-compound in Organs (gas chromatography)
Type: in vivo, Wister-strain male rats
Settings: 4 g/kg, tail vein; for Residual Rate of perfluorobicyclo compound: 3 Months after administration
Protocol: Using Wister-strain male rats weighing 120-130 g, the emulsion prepared in Example 1 was administered into the tail vein [at 4 g/kg as perfluoro-4-methyloctahydroquinolidine], and for a period of 3 months after the administration, the content of said compound in the liver, spleen and fat tissues due to uptake were measured by means of gas chromatography.

For FC(F)(F)C1(F)N2C(F)(F)C(F)(F)C(F)(F)C(F)(F)C2(F)C(F)(F)C(F)(F)C1(F)F (centres unmarked) [perfluoro-4-methyloctahydroquinolidine], the “adverse influence on the liver or spleen organ” value (3 months) was “no evidence of adverse influence on the liver or spleen organ”, the “uptake by the reticulo-endothelial organ and disappearance” value (rat) was “taken up in greater amounts by the reticulo-endothelial organ shortly after the administration, but soon disappeared rapidly” and the “Residual Rate of perfluorobicyclo compound” value (Liver) was 0.30%. For the same compound, the “Residual Rate of perfluorobicyclo compound” value (Spleen) was 0.09% and the half-life (in vivo, iv, 4000 mg/kg, rat) was 176 h.
